Assay results reported in patent US9125866B1, “Antidepressant compounds” (KING SAUD UNIVERSITY, priority 2015, dated 2015).

System: mice subjected to the forced swim test
Test: Forced swim test on mice (duration of immobility)
Type: in vivo, Swiss white mice
Details: for Duration of immobility in seconds during the last four minutes of the six minute period: 20 minutes before test, N=4; for Activity in reducing immobility time compared with control (in words): 40 mg/Kg; for Percentage decrease in immobility times for dosage of 40 mg/kg: 40 mg/kg i.p.; for Percentage decrease in immobility times for dosage of 40 mg/kg / Percentage decrease in immobility times for dosage of 80 mg/kg: versus control; for Percentage decrease in immobility times for dosage of 80 mg/kg: 80 mg/kg i.p.
From the text: The antidepressant compounds can be used to treat depression. […] As exemplified in such technical articles as I Weiner et al., “A comparison of drug effects in latent inhibition and the forced swim test differentiates between the typical antipsychotic haloperidol, the atypical antipsychotics clozapine and olanzapine, and the antidepressants imipramine and paroxetine”, Behavioural Pharmacology (2003), Vol. 14, pp. 215-22, and D. A. Slattery et al., “Using the rat forced swim test to assess antidepressant-like activity in rodents”, Nature Protocols (2012), Vol. 7, pp. 1009-1014, the forced swim test is recognized in the pharmacological art as a standard test protocol for assessing antidepressant-like behavior induced by antidepressant compounds. The forced swimming test measures the duration of immobility of rodents exposed to the threat of drowning. Mice normally swim for 1-2 minutes and then turn helpless and become immobile. […] For example, the mouse may appear to float, i.e. almost immobile and with its head above water. The majority of known antidepressant drugs decrease the duration of immobility.
To test for the presence of anti-depressant activity of the test compounds 3, 4, 5 and 6, the forced swim test was conducted on mice. The forced swimming test was conducted generally in accordance with the procedures set forth in David, D. J. P. et al., Psychopharmacology (2003), 166, 373-382, with the exception of a slight modification in the dimensions of the vessel used as a swimming pool. The vessel was a glass cylinder having an internal diameter of 25 cm and included water having a depth of 15 cm and a temperature of about 22±2° C. Swiss white mice weighing 25 g each were divided into 17 groups (N=4). One group served as control and the others divided for each test compound.
The test compounds were dissolved in DMSO and administered in 4 dose levels of 10, 20, 40, 80 mg/kg, respectively, intraperitoneally (“i.p.”). The antidepressant compounds were administered to the mice 20 minutes before starting the swimming test. The control group was administered the vehicle only, in the same volume. Each mouse was allowed to stay in the swimming pool for 6 minutes. The duration of the period of immobility was measured at the beginning of the third minute of placing the mouse into the swimming pool and ended by the end of the sixth minute. In other words, the duration of immobility observed only during the last four minutes was recorded. For each test compound dose, the time of immobility was calculated and then averaged.

[1] = 40 mg/kg i.p. in DMSO, * P<0.05 compared with control
[2] = 80 mg/kg i.p. in DMSO, * P<0.05 compared with control

SMILES: O=CC1CC2c3cccc(Cl)c3C1c1c(Cl)cccc12 (stereo not shown) [Compound 3, 4,5-dichloro-9,10-dihydro-9,10-ethanoanthracene-11-carbaldehyde]
- Duration of immobility in seconds during the last four minutes of the six minute period (10 mg/kg i.p. in DMSO): 240 s
- Duration of immobility in seconds during the last four minutes of the six minute period (20 mg/kg i.p. in DMSO): 240 s
- Activity in reducing immobility time compared with control (in words) (p<0.05, N=4): significantly active in reducing immobility time
- Duration of immobility in seconds during the last four minutes of the six minute period [1]: 160 ± 11* seconds
- Percentage decrease in immobility times for dosage of 40 mg/kg: 28.9%
- Immobility time compared with the control (in words) (80 mg/kg dosage, p<0.05, N=4): significant decrease in immobility time
- Duration of immobility in seconds during the last four minutes of the six minute period [2]: 65 ± 4* seconds
- Percentage decrease in immobility times for dosage of 80 mg/kg: 71.1%

SMILES: O=CC1CC2c3c(Cl)cccc3C1c1cccc(Cl)c12 (stereo not shown) [Compound 4, 1,8-dichloro-9,10-dihydro-9,10-ethanoanthracene-11-carbaldehyde]
- Duration of immobility in seconds during the last four minutes of the six minute period (10 mg/kg i.p. in DMSO): 240 s
- Duration of immobility in seconds during the last four minutes of the six minute period (20 mg/kg i.p. in DMSO): 240 s
- Duration of immobility in seconds during the last four minutes of the six minute period [1]: 240 s
- Duration of immobility in seconds during the last four minutes of the six minute period [2]: 240 s
- Activity in the forced swim test (in words) (all doses tested (10, 20, 40, 80 mg/kg i.p.)): completely inactive

SMILES: CNCC1CC2c3cccc(Cl)c3C1c1c(Cl)cccc12 (stereo not shown) [Compound 5]
- Duration of immobility in seconds during the last four minutes of the six minute period (10 mg/kg i.p. in DMSO): 240 s
- Duration of immobility in seconds during the last four minutes of the six minute period (20 mg/kg i.p. in DMSO): 200 ± 12.3 s
- Activity in reducing immobility time compared with control (in words) (p<0.05, N=4): significantly active in reducing immobility time
- Duration of immobility in seconds during the last four minutes of the six minute period [1]: 140 ± 7.9* seconds
- Percentage decrease in immobility times for dosage of 40 mg/kg: 37.8%
- Activity compared with compound 3 (in words) (80 mg/kg dosage, p<0.05, N=4): significantly more active than compound 3
- Immobility time compared with the control (in words) (80 mg/kg dosage, p<0.05, N=4): significant decrease in immobility time
- Duration of immobility in seconds during the last four minutes of the six minute period [2]: 36 ± 4.9* seconds
- Percentage decrease in immobility times for dosage of 80 mg/kg: 84.0%
